For assay [1], the target named is T1, FGF-R1C ECD (Homo sapiens, UniProt P11362).
T1 sequence (P11362 22-376 limits assumed): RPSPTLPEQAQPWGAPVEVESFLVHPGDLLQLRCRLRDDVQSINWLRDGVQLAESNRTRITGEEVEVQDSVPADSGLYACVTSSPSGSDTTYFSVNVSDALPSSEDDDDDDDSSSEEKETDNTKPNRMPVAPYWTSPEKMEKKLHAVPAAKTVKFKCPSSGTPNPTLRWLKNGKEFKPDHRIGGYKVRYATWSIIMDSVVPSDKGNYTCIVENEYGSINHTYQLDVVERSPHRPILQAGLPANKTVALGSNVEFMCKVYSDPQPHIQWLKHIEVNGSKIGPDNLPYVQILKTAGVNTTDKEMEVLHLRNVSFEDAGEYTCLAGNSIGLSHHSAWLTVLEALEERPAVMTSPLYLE
Nature of the assay: biochemical. The gist of the method:
(§1)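 Biolayer interferometry with biotinylated FGF-R ECD on streptavidin biosensors in PBS pH 7.4, 0.05% Tween-20, 0.01% BSA. Multi-concentration: purified peptide dilution series fitted to a multi-point KD model.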

Assay [2] has as its target T2, FGF-R3C ECD (Homo sapiens, UniProt P22607).
T2 sequence (P22607 23-375 limits assumed): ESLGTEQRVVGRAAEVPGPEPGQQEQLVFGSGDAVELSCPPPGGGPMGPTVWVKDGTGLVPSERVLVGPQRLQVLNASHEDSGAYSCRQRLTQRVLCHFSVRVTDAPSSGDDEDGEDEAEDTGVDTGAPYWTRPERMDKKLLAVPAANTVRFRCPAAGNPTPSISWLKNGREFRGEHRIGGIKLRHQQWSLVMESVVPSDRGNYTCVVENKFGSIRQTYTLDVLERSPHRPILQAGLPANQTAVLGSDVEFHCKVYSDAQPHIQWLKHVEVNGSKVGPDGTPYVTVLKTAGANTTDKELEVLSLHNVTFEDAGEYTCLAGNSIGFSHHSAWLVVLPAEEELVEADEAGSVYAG
Put plainly: biochemical. A digest of the protocol:
as §1

In assay [3] the target is T3, FGF-R4 ECD (Homo sapiens, UniProt P22455).
T3 construct: DNA constructs for the extracellular domain (ECD) of human FGF-; HPC4 (C); made in house; host or cells: HEK 293-6E
T3 sequence (P22455 22-369 limits assumed): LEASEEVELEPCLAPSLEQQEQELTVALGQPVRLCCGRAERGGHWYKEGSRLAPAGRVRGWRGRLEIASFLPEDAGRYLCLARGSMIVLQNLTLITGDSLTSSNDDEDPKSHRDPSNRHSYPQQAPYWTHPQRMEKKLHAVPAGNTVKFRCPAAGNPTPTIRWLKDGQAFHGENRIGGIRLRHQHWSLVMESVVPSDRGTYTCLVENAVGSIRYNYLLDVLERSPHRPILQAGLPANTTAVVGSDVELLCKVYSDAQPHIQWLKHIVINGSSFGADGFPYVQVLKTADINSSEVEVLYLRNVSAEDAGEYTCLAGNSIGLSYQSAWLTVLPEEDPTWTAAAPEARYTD
Put plainly: multi-concentration BLI of purified peptides. The conditions noted are these: purified NNK library peptides. Type of assay: binding. A digest of the protocol:
as §1

The target in assay [4] is T3, FGF-R4 ECD. Put plainly: single concentration BLI of crude peptides. Type of assay: binding. Conditions: crude NNK peptides, single concentration BLI (Table S3); read-out: KD (4). The gist of the method:
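BLI, streptavidin sensors loaded with biotinylated receptor ECD. Single-point: ~1 μM crude peptide, PBS pH7.4/0.05% Tween-20/0.01% BSA; association then dissociation in buffer. KD corrected for UPLC-CAD-determined concentration.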

The target in assay [5] is T4, FGFR1c/KLB (Fc-fused human FGF-R1alpha(IIIc) with beta-klotho) (Homo sapiens, UniProt P11362).
T4 sequence (P11362 22-376 limits assumed): T1 sequence (P11362 22-376 limits assumed)
Put plainly: AlphaScreen FGF21 competitive binding assay.
Method: Alphascreen binding assay
(§2) The competitive binding assay was carried out according to the methods detailed in Hansen. et al using
(§3) AlphaScreen.3 All reagents and samples were prepared in assay buffer: 40mM Hepes, 140mM NaCl, 1mM
(§4) CaCl2, 0,05% Tween20, pH=7.5, 0.1% BSA. In brief, recombinant human beta-klotho (R&D Systems) was
(§5) preincubated for 60 min with the ectodomain, either Fc-fused human FGF-R1alpha(IIIc), FGF-R3alpha(IIIc)
(§6) or FGF-R4 (R&D Systems), and the mixture was added to the test peptides in OptiPlate™ (PerkinElmer).
(§7) Biotinylated FGF21 and heparin were further added to each well. AlphaScreen bead mix (1:1 mix of Protein
(§8) A acceptor beads/ streptavidin-coated donor beads, PerkinElmer) were added to each well incubated
(§9) overnight at RT in the dark, and measured on a plate reader (Envision). Assays were carried out in triplicates
(§10) with concentrations ranging from 3, 10, 30, 100, 300 ,1000 and 3000 nM of peptide. No peptide control
(§11) (media only) was used as a negative control, and unlabeled FGF21 and FGF1 as positive control.
(§12) competing with biotinylated natural FGF21 ligand.

Assay [6] concerns the target T5, FGFR3c/BKL (Fc-fused human FGF-R3alpha(IIIc) with beta-klotho) (Homo sapiens, UniProt P22607).
T5 sequence (P22607 23-375 limits assumed): T2 sequence (P22607 23-375 limits assumed)
Put plainly: AlphaScreen FGF21 competitive binding assay. Background: Alpha assays give light when donor and acceptor beads are brought close together.

Assay [7] has as its target T6, FGFR4/KLB (Fc-fused human FGF-R4 with beta-klotho) (Homo sapiens, UniProt P22455).
T6 sequence (P22455 22-369 limits assumed): T3 sequence (P22455 22-369 limits assumed)
Put plainly: AlphaScreen FGF21 competitive binding assay.
Method: Alphascreen binding assay
as §2, §3, §4, §5, §6, §7, §8, §9, §10, §11, §12

Assay [8] deals with T1, FGF-R1C ECD. Nature of the assay: biochemical. Type of assay: binding. Also on record: DNA constructs for the extracellular domain (ECD) of human FGF-; HPC4 (C); made in house; host or cells: HEK 293-6E. A digest of the protocol: as §1
Assay [9] has as its target T2, FGF-R3C ECD. Nature of the assay: biochemical. Type of assay: binding. Also on record: DNA constructs for the extracellular domain (ECD) of human FGF-; HPC4 (C); made in house; host or cells: HEK 293-6E. A digest of the protocol: as §1

The Kd is a measure of binding affinity in units of concentration. The IC50 is the concentration needed to halve the response being measured.

Like-named read-outs stand apart in the source and are kept apart here.

For `CC[C@H](C)[C@@H]1NC(=O)[C@@H](NC(=O)[C@@H](N)CCSC)CSSC[C@@H](C(=O)NCC(=O)N[C@@H](CO)C(=O)NCC(=O)N[C@@H](CO)C(=O)N[C@@H](CC(=O)O)C(=O)N[C@@H](Cc2ccc(O)cc2)C(=O)N[C@@H](CCCCN)C(=O)N[C@@H](CC(=O)O)C(=O)N[C@@H](CC(=O)O)C(=O)N[C@@H](CC(=O)O)C(=O)N[C@@H](CC(=O)O)C(=O)N[C@@H](CCCCN)C(N)=O)NC(=O)[C@H](CCCNC(=N)N)NC(=O)[C@H]([C@@H](C)O)NC(=O)[C@H](Cc2c[nH]c3ccccc23)NC(=O)[C@H](Cc2ccc(O)cc2)NC(=O)[C@H](CCC(N)=O)NC(=O)[C@H](Cc2ccc(O)cc2)NC(=O)[C@H]([C@@H](C)O)NC(=O)[C@H](Cc2ccc(O)cc2)NC(=O)[C@H](Cc2c[nH]c3ccccc23)NC(=O)[C@H](CCCCN)NC(=O)CNC1=O` [1C.1], the dissociation constant (Kd) in assay [1] is 111 nM; in [2] it was above 1000 nM; in assay [3] it was above 1000 nM; in assay [4], above 10000 nM; in assay [8], 488 nM; in assay [9] it was above 10000 nM. Also, the half-inhibitory concentration (IC50) in [5] was 249 nM; in assay [6], above 1000 nM; in [7], above 1000 nM.
As to `CSCC[C@H](NC(C)=O)C(=O)N[C@H]1CSSC[C@@H](C(=O)NCC(=O)N[C@@H](CO)C(=O)NCC(=O)N[C@@H](CO)C(=O)N[C@@H](CC(=O)O)C(=O)N[C@@H](Cc2ccc(O)cc2)C(=O)N[C@@H](CCCCN)C(=O)N[C@@H](CC(=O)O)C(=O)N[C@@H](CC(=O)O)C(=O)N[C@@H](CC(=O)O)C(=O)N[C@@H](CC(=O)O)C(=O)N[C@@H](CCCCN)C(N)=O)NC(=O)[C@H](C(C)C)NC(=O)[C@H](CC(C)C)NC(=O)[C@H](CC(C)C)NC(=O)[C@H](Cc2c[nH]c3ccccc23)NC(=O)[C@H](Cc2ccc(O)cc2)NC(=O)[C@H](Cc2ccccc2)NC(=O)[C@H](CC(C)C)NC(=O)[C@H](CCCNC(=N)N)NC(=O)[C@H](CCC(=O)O)NC(=O)[C@@H]2CCCN2C1=O` [4.7], the dissociation constant (Kd) in assay [1] was above 1000 nM; in assay [2], above 1000 nM; in [3], 443 nM; in assay [4], 68 nM; in assay [8], above 10000 nM; in [9] it was above 10000 nM. For the same molecule, the IC50 in assay [5], in [6] and in assay [7] was above 1000 nM in each case.

These data come from publication PMC10763615, “Identification and engineering of potent cyclic peptides with selective or promiscuous binding through biochemical profiling and bioinformatic data analysis” (RSC Chemical Biology, 2023).
